Tests used:
[1] = system: intestinal mucosa biopsies from ulcerative colitis patients; assay: Human biopsy assay, cytokine release from biopsies of UC patients; format: cell-based; details: 1 μg/mL, 24 hours; relative to DMSO control 100%
Experimental: Intestinal mucosa biopsies are obtained from the inflamed regions of the colons of IBD patients. The biopsy material is cut into small pieces (2-3 mm) and placed on steel grids in an organ culture chamber at 37° C. in a 5% CO2/95% O2 atmosphere in serum-free media. DMSO control or test compound at the desired concentration are added to the tissue and incubated for 24 hr in the organ culture chamber. The supernatant is harvested for determination of IL-6, IL-8, IL-1β and TNFα levels by R&D ELISA.

non-mutant kinases = assay: KinomeScan selectivity scores; format: binding
Experimental: (§1) Kinase enzyme binding activities of compounds disclosed herein may be determined using a proprietary assay which measures active site-directed competition binding to an immobilized ligand (Fabian, M. A. et al., Nature Biotechnol., 2005, 23:329-336). These assays may be conducted by DiscoverX (formerly Ambit; San Diego, Calif.). The percentage inhibition produced by incubation with a test compound may be calculated relative to the non-inhibited control.

[2] = system: rat, Cynomolgus macaque or human hepatocytes; assay: Analysis of metabolites in hepatocyte incubations; format: in vitro ADME; details: 10 μM, 0, 60 and 90 minutes
Experimental: Studies were conducted by BioFocus (Saffron Walden, UK) to determine the metabolic fate of Compound I following incubation with rat, Cynomolgus macaque or human hepatocytes.
Separate incubations (n=3) of Compound I (10 μM initial concentration) or DMSO control, were performed with cryopreserved hepatocytes from each species (0.5 million cell/mL) at 37° C. for 0, 60 and 90 minutes before termination of reactions and compound extraction with acetonitrile. Sample replicates were pooled prior to analysis.
Potential metabolites were identified using time-of-flight (TOF) and triple quadruple (TQ) mass spectrometers.

d-U937 cells = assay: Accumulation of β catenin in d-U937 cells; format: cell-based, human; details: normalised to Reference compound at 1 μg/mL
Experimental: U937 cells, a human monocytic cell line, are differentiated into macrophage-type cells by incubation with PMA (100 ng/mL) for between 48 to 72 hr. The cells are then incubated with either final concentrations of test compound or vehicle for 18 hr. The induction of β-catenin by the test compound is stopped by replacing the media with 4% formaldehyde solution. Endogenous […] is neutralised by incubating with quenching buffer (100 μL, 0.1% sodium azide, 1% H2O2 in PBS with 0.05% Tween-20) for 20 min. The cells are washed with washing buffer (200 μL; PBS containing 0.05% Tween-20) and incubated with blocking solution (200 μL; 5% milk in PBS) for 1 hr, re-washed with washing buffer (200 μL) and then incubated overnight with anti-β-catenin antibody solution (50 μL) in 1% BSA/PBS (BD, Oxford, UK).
After washing with washing buffer (3×200 μL; PBS containing 0.05% Tween-20), cells are incubated with a HRP-conjugated secondary antibody solution (100 μL) in 1% BSA/PBS (Dako, Cambridge, UK) and the resultant signal is determined colourimetrically (OD: 450 nm with a reference wavelength of 655 nm) using TMB substrate (50 μL; R&D Systems, Abingdon, UK). This reaction is stopped by addition of 1N H2SO4 solution (50 μL). Cells are then washed with washing buffer and 2% crystal violet solution (50 μL) is applied for 30 min. After washing with washing buffer (3×200 μL), 1% SDS (100 μL) is added to each well and the plates are shaken lightly for 1 hr prior to measuring the absorbance at 595 nm (Varioskan® Flash, Thermo-Fisher Scientific).
The measured OD450-655 readings are corrected for cell number by dividing the OD450-655 by the OD595 readings.

p38 MAPKα = p38 MAPKα (Homo sapiens (Human), UniProt Q16539); assay: KINOMEscan dissociation constant, p38 MAPKα; format: binding
p38 MAPKα, sequence (Q16539 whole entry, looked up): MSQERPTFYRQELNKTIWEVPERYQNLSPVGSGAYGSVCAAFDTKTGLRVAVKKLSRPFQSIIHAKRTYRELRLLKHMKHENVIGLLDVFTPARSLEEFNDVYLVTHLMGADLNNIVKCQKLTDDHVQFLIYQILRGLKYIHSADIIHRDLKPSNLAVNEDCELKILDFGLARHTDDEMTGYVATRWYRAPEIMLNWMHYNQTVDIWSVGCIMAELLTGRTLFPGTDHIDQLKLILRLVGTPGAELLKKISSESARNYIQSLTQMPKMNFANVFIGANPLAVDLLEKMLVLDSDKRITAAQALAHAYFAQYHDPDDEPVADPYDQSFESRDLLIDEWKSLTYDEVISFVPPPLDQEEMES
Experimental: as §1

[3] = Pharmacokinetics after oral administration to rats; format: in vivo; details: oral 5 mg/kg, vehicle B
Experimental: (§2) Studies were conducted by Sai Life Sciences (Hinjewadi, Pune, India) to investigate the plasma pharmacokinetics and total colon tissue distribution of Compound I. In particular, pharmacokinetic studies were carried out in: • male C57BL/6 mice, following a single oral administration; and • male Wistar rats following a single intravenous or oral administration.

[4] = Pharmacokinetics after intravenous administration to rats; format: in vivo; details: intravenous 0.25 mg/kg
Experimental: as §2

[5] = Human hepatocyte stability test; format: in vitro ADME; details: human hepatocytes
Experimental: (§3) Assessment of certain in vitro ADME (absorption, distribution, metabolism, and excretion) parameters for Compound I was conducted by BioFocus (Saffron Walden, UK). The results reveal that Compound I is cleared rapidly by human hepatocytes and that it has a reduced liability for time-dependent cytochrome P450 inhibition.

human hepatocytes = assay: Human hepatocyte stability test; format: in vitro ADME
Experimental: as §3

With `C#Cc1cc(Nc2nccc(Oc3ccc(NC(=O)Nc4cc(C(C)(C)C)cc(NS(C)(=O)=O)c4OC)c4ccccc34)n2)cc(C(=O)NCCOCCOCCOC)c1` [Compound I, 3-((4-((4-(3-(5-(tert-Butyl)-2-methoxy-3-(methylsulfonamido)phenyl)ureido)naphthalen-1-yl)oxy)pyrimidin-2-yl)amino)-5-ethynyl-N-(2-(2-(2-methoxyethoxy)ethoxy)ethyl)benzamide] the “IL-1β release from biopsies of UC patients” value [1] was 5 ± 8%, the “IL-6 release from biopsies of UC patients” value [1] was 17 ± 23% and the “IL-8 release from biopsies of UC patients” value [1] was 9 ± 15%. For the same molecule, the “number of individual kinase hits, S(1)” value (non-mutant kinases; 50 nM, % Ctrl <1) was 0, the “KinomeScan Selectivity Score S(10)” value (non-mutant kinases; 50 nM, % Ctrl <10) was 0.023 and the “number of individual kinase hits, S(10)” value (non-mutant kinases; 50 nM, % Ctrl <10) was 9. For the same molecule, the “KinomeScan Selectivity Score S(35)” value (non-mutant kinases; 50 nM, % Ctrl <35) was 0.068, the “number of individual kinase hits, S(35)” value (non-mutant kinases; 50 nM, % Ctrl <35) was 27 and the “KinomeScan Selectivity Score S(1)” value (non-mutant kinases; 500 nM, % Ctrl <1) was 0.038. The “number of individual kinase hits, S(1)” value (non-mutant kinases; 500 nM, % Ctrl <1) was 15, the “number of individual kinase hits, S(10)” value (non-mutant kinases; 500 nM, % Ctrl <10) was 51 and the “number of individual kinase hits, S(35)” value (non-mutant kinases; 500 nM, % Ctrl <35) was 78. The “number of metabolites formed in hepatocytes” value [2] was 9, the “products connected to metabolism at the naphthalene moiety” value [2] was “no products were noted” and the “% β-catenin induction” value (d-U937 cells; 1 μg/mL) was 21%. For the same molecule, the “% β-catenin induction” value (d-U937 cells; 5 μg/mL) was 14%, the “% β-catenin induction” value (d-U937 cells; 10 μg/mL) was 26% and the Kd (p38 MAPKα) was 9 nM. For the same molecule, the Fpo [3] was 0.0%, the CI [4] was 4.8 mL/min/kg and the AUC(0-inf) ([4]; male, Wistar, rat, plasma) was 871 ng·h/mL. For the same molecule, the AUC(0-t) ([4]; male, Wistar, rat, plasma) was 869 ng·h/mL, the C0 ([4]; male, Wistar, rat, plasma) was 6540 ng/mL and the half-life ([4]; male, Wistar, rat, plasma) was 6 min. For the same molecule, the Vd ([4]; male, Wistar, rat, plasma, read-out: Vss) was 0.03 L/kg, the half-life [5] was 34 min and the hepatocyte CLint ([5]; read-out: Mean intrinsic clearance) was 41 µL/min/1e6 cells. For the same molecule, the “Mean hepatic extraction ratio” value (human hepatocytes) was 0.85.

Source: patent publication US8927563B2, “Kinase inhibitor” (Respivert Limited, priority 2013, dated 2015)
